Experimental data from article PMC8540642, “Antineoplastic Activity of Rhus trilobata Nutt. (Anacardiaceae) against Ovarian Cancer and Identification of Active Metabolites in This Pathology” (Plants, 2021).
Converted amounts (≈) assume the structure as drawn. Like-named read-outs stand apart in the source and are kept apart here.

Assays:
[1] = tested on: SKOV-3 cells xenotransplant; experiment: Antineoplastic activity in Nu/Nu mice with subcutaneous SKOV-3 xenotransplant; type: in vivo; design: key to Vascularity of tumor lesion / Fibrosis of tumor lesion: +, present; +++, abundant
Procedure: Nu/Nu mice were used to determine the antineoplastic activity of RHTR (20 female, 25 ± 5 g weight, and 6-8 weeks old). Mice were maintained in sterile conditions (25 ± 1 °C, and 12 h light/dark cycles) and ad libitum access to food (LabDiet®, Richmond, IN, USA) or water in UPEAL (CINVESTAV-IPN). The Institutional Ethics Committee approved all procedures (No. 184-16), following the Official Mexican Regulations: NOM-062-ZOO-1999 [31] and the International Guidelines (see Appendix A, NC3Rs ARRIVE Guidelines Checklist). Mice were xenotransplanted subcutaneously on the right flank with 5 × 10^6 SKOV-3 cells. The development of tumor lesions was monitored for 28 days (≈50 mm^3). Four weeks post-xenotransplantation, rodents were treated daily with 200 mg/kg/i.p. of AE, AF02, or controls for another 28 days. Finally, each week, we evaluated (i) bodyweight with an electronic bascule (CS200, Ohaus®, Parsippany, NJ, USA) and (ii) tumoral lesions with a Vernier caliper (Truper®, Jilotepec, Edo. de México, M.X.). At the end of treatments, mice were anesthetized with 0.1575 mg/250 μL 1× PBS (v/v, i.p.) of pentobarbital sodium (PiSA®, Guadalajara, Jal., M.X.) for the subsequent analyses (Figure 5).
(§1) Computed axial tomography (CAT) was performed with a Somatom Emotion™ (Siemens™) with animals in supine decubitus, full-body, and craniocaudal directions. The sequences and parameters used in the study were modifications based on the ExtrHR protocol. Ultrasonography (USG) was performed in an ultrasound system (LogiQ™ P7, General Electric-Healthcare®, Chicago, IL, USA), with real-time image, skeletal muscle preset, and Doppler application. Determination of paraclinical and histopathological studies such as hematic biometry, blood chemistry, and pathological lesions in liver, kidneys, and tumor were performed according to the protocol described by Varela-Rodríguez et al..

[2] = Paraclinical studies (blood chemistry, hematic biometry) and bodyweight in treated Nu/Nu mice; type: in vivo; conditions: 28 days treatment
Procedure: Nu/Nu mice were used to determine the antineoplastic activity of RHTR (20 female, 25 ± 5 g weight, and 6-8 weeks old). […] Mice were xenotransplanted subcutaneously on the right flank with 5 × 10^6 SKOV-3 cells. […] Four weeks post-xenotransplantation, rodents were treated daily with 200 mg/kg/i.p. of AE, AF02, or controls for another 28 days. Finally, each week, we evaluated (i) bodyweight with an electronic bascule (CS200, Ohaus®, Parsippany, NJ, USA) and (ii) tumoral lesions with a Vernier caliper (Truper®, Jilotepec, Edo. de México, M.X.).
as §1

[3] = Morphometric analysis of liver and kidneys in treated Nu/Nu mice; type: in vivo
Procedure: as §1

SKOV-3 cells = experiment: MTT cell viability, dose-response curves 24 h; type: cell-based, human; conditions: Homo sapiens, SK-OV-3, MTT, 24 h, read-out: IC50 (half-maximal inhibitory concentration), SKOV-3
Procedure: (§2) Cultures (2 × 10^4 cells/well) were seeded with 200 μL of supplemented medium (Sigma®) in 96-well plates (Corning®, Corning, NY, USA) and incubated for 24 h. Cell treatments were 5-200 μg/mL of samples/controls for 24 h. At the end of the treatments, we added MTT (5 mg/mL, Sigma®) for 4 h of incubation, and optical density was measured at λ = 590 nm in a VariosKan® Flash (Thermo-Scientific®, Waltham, MA, USA). The half-maximal inhibitory concentration (IC50) was determined.

BEAS-2B cells = experiment: MTT cell viability, dose-response curves 24 h; type: cell-based; conditions: MTT; for IC50: Homo sapiens, BEAS-2B, read-out: IC50 (half-maximal inhibitory concentration), BEAS-2B
Procedure: as §2

CACO-2 cells = experiment: MTT cell viability, dose-response curves 24 h; type: cell-based; conditions: Homo sapiens, Caco-2, MTT, 24 h, read-out: IC50 (half-maximal inhibitory concentration), CACO-2
Procedure: as §2

CHO-K1 cells = experiment: MTT cell viability, dose-response curves 24 h; type: cell-based; conditions: MTT, 24 h; for IC50: Cricetulus griseus, CHO-K1, 24 h, read-out: IC50 (half-maximal inhibitory concentration), CHO-K1
Procedure: as §2

OVCAR-3 cells = experiment: MTT cell viability, dose-response curves 24 h; type: cell-based; conditions: Homo sapiens, OVCAR-3, MTT, 24 h, read-out: IC50 (half-maximal inhibitory concentration), OVCAR-3
Procedure: as §2

[4] = tested on: ovarian cancer tumoral lesions; design: method as in PMID 32276584; conditions: 50 mg/kg, peritumoral route; cited from earlier work
MCF-7 = tested on: MCF-7; design: method as in PMID 12781329, PMID 18790750; conditions: MCF-7, 50 μM, G1 phase; cited from earlier work

SMILES: N.N.O=C([O-])C1(C(=O)[O-])CCC1.[Pt+2] [Carboplatin, carboplatin]
- Fibrosis of tumor lesion ([1]; 1× PBS +): +
- Vascularity of tumor lesion ([1]; 1× PBS +++): +
- Morphology of tumor lesion ([1]; 1× PBS Cystic): Solid
- necrosis percentage of tumor lesion (imaging) ([1]; Figure 3A, vehicle 35.16%): 5.19%
- Tumor lesion weight ([1]; end of 28 days treatment, 1× PBS 0.34 ± 0.09): 0.14 ± 0.06 g
- Tumor lesion larger diameter ([1]; end of 28 days treatment, 1× PBS 14.53 ± 2.4): 3.70 ± 0.26 mm
- Tumor volume ([1]; end of 28 days treatment, 1× PBS 373.3 ± 18.1): 137.3 ± 18.6 * mm^3
- PCT (plateletcrit) ([2]; 1× PBS 0.55 ± 0.30): 0.55 ± 0.29
- Creatinine ([2]; 1× PBS 0.65 ± 0.2): 0.37 ± 0.26 mg/dL
- Total bilirubin ([2]; 1× PBS 0.67 ± 0.16): 0.58 ± 0.2 mg/dL
- Albumin ([2]; 1× PBS 1.36 ± 0.21): 1.33 ± 0.29 g/dL
- Protein ([2]; 1× PBS 4.7 ± 0.56): 5.1 ± 1.46 g/dL
- Erythrocytes ([2]; 1× PBS 7.92 ± 1.93): 7.81 ± 0.88 ×10^6/mm^3
- Hemoglobin ([2]; 1× PBS 14.4 ± 2.13): 13.1 ± 1.61 g/dL
- ALT (GPT) ([2]; 1× PBS 40.75 ± 14.5): 64.4 ± 6.87 U/L
- Hematocrit ([2]; 1× PBS 44.52 ± 2.17): 40.57 ± 4.16%
- Urea ([2]; 1× PBS 47.9 ± 7.16): 59.4 ± 9.99 mg/dL
- Alkaline phosphatase ([2]; 1× PBS 71 ± 10.36): 66.6 ± 15.6 U/L
- Glucose ([2]; 1× PBS 78.3 ± 16.6): 107 ± 14.8 mg/dL
- Cholesterol ([2]; 1× PBS 85.5 ± 13.4): 108.6 ± 19.4 mg/dL
- Triglycerides ([2]; 1× PBS 87.6 ± 12.01): 103.7 ± 12.7 mg/dL
- AST (GOT) ([2]; 1× PBS 149.8 ± 27.29): 162.9 ± 8.2 U/L
- Kidneys weight ([3]; 1X PBS 0.38 ± 0.042): 0.40 ± 0.01 g
- Liver weight ([3]; 1X PBS 1.53 ± 0.14): 1.80 ± 0.10 g
- Kidneys larger diameter ([3]; 1X PBS 9.34 ± 0.67): 11.5 ± 0.7 mm
- Liver larger diameter ([3]; 1X PBS 29.65 ± 2.22): 30.5 ± 2.2 mm

SMILES: COC(=O)c1cc(O)c(O)c(O)c1 [Compound 2, methyl 3,4,5-trihydroxybenzoate]
- IC50 (SKOV-3 cells): > 200 µg/mL
- IC50 (SKOV-3 cells; value in brackets): > 1090 µM
- IC50 (BEAS-2B cells): 200 µg/mL
- IC50 (BEAS-2B cells; value in brackets): 1090 µM
- IC50 (CACO-2 cells): 100 µg/mL
- IC50 (CACO-2 cells; value in brackets): 543 µM
- IC50 (CHO-K1 cells): 130 µg/mL
- IC50 (CHO-K1 cells; value in brackets): 706 µM
- IC50 (OVCAR-3 cells): > 200 µg/mL
- IC50 (OVCAR-3 cells; value in brackets): > 1090 µM

SMILES: O=c1c(O)c(-c2cc(O)c(O)c(O)c2)oc2cc(O)cc(O)c12 [Compound 5, myricetin]
- IC50 (SKOV-3 cells): 166 µg/mL
- IC50 (SKOV-3 cells; value in brackets): 522 µM
- IC50 (BEAS-2B cells; value in brackets): 201 µM
- IC50 (half-maximal inhibitory concentration), BEAS-2B (BEAS-2B cells): 64 µg/mL (≈ 201 µM)
- IC50 (half-maximal inhibitory concentration), BEAS-2B (BEAS-2B cells; listed as Myr): ~ 150 μg/mL
- IC50 (CACO-2 cells): 62 µg/mL
- IC50 (CACO-2 cells; value in brackets): 195 µM
- IC50 (CHO-K1 cells; value in brackets): 104 µM
- IC50 (half-maximal inhibitory concentration), CHO-K1 (CHO-K1 cells): 33 µg/mL (≈ 104 µM)
- IC50 (half-maximal inhibitory concentration), CHO-K1 (CHO-K1 cells; listed as Myr): ~ 150 μg/mL
- IC50 (OVCAR-3 cells): 94 µg/mL
- IC50 (OVCAR-3 cells; value in brackets): 295 µM
- inhibition of tumoral lesions (of progression) [4]: 50%

SMILES: O=C(OC[C@H]1O[C@@H](OC(=O)c2cc(O)c(O)c(O)c2)[C@H](OC(=O)c2cc(O)c(O)c(O)c2)[C@@H](OC(=O)c2cc(O)c(O)c(O)c2)[C@@H]1OC(=O)c1cc(O)c(O)c(O)c1)c1cc(O)c(O)c(O)c1 [Compound 8, 1,2,3,4,6-pentakis-O-galloyl-β-D-glucose]
- cell cycle effect (MCF-7): cell cycle arrest
